Columns and labels:
Format in all cases: cell-based, mouse
[1] = system: primary epidermal keratinocytes; assay: Radiolabeled phosphatidylglycerol formation in intact keratinocytes
Method: Primary epidermal keratinocytes were prepared from 1-3-day old neonatal ICR mice after trypsin flotation of the skin and mechanical separation of the epidermis from the dermis. The epidermal cells were released by scraping, collected by centrifugation and plated in 6-well dishes in a medium consisting of MEM containing 25 μM calcium, 2% dialyzed fetal bovine serum, 2 mM glutamine, 5 ng/mL EGF, ITS (6.25 μg/mL insulin+6.25 μg/mL transferrin+6.25 ng/mL selenious acid+5.35 μg/mL linoleic acid+1.25% bovine serum albumin), 100 U/mL penicillin, 100 μg/mL streptomycin and 0.25 μg/mL fungizone. After an overnight incubation, the cells were refed with serum-free keratinocyte medium (SFKM), in which 2% dialyzed fetal bovine serum was replaced with 90 μg/mL bovine pituitary extract. Cells were refed with fresh medium every 1-3 days.
For the PLD assay cultured primary keratinocytes were labeled for 20-24 hours with 2.5 μCi/ml [^3H] oleic acid. The cells were then exposed to vehicle or 100 nM PMA in the presence of 0.5% ethanol for 30 minutes. To measure the formation of radiolabeled phosphatidylglycerol, cells were treated for 24 hours with SFKM containing vehicle, 250 nM 1,25-dihydroxyvitamin D3 or 125 μM calcium and then labeled for an additional 30 minutes with 1-2.5 μCi/mL [^3H] or 0.4-0.5 μCi/mL [^14C]glycerol. For experiments investigating the extracellular calcium dependence of PG formation, cells were incubated for 24 hours in SFKM containing various calcium concentrations prior to the addition of 5 μCi/mL [^3H]glycerol for 30 minutes. In some cases, cells were stimulated with 25 μM calcium (control)—or 125 μM calcium-containing SFKM for 24 hours prior to the addition of [^14C]glycerol in the presence and absence of 1% ethanol. To measure phosphatidylglycerol formation in response to PMA, unlabeled cells were stimulated with 100 nM PMA in the presence of radiolabeled glycerol, as above. Reactions were terminated and the radiolabeled phosphatidylalcohol extracted, separated by thin-layer chromatography and quantified as described by Bollag (1998), referenced above.

[2] = system: keratin 5 promoter; assay: Co-transfection analysis, keratin 5 promoter-luciferase reporter; conditions: 1 mM calcium, 24 hours
Method: FIGS. 15A-B illustrate that glycerol, but not xylitol or sorbitol, inhibits DNA synthesis and enhances the inhibitory effect of an elevated extracellular Ca^2+ concentration. (A) Near-confluent keratinocytes were incubated for 24 hours with 0.02 or 0.1% glycerol and DNA synthesis measured as the incorporation of [^3H] thymidine incorporation into DNA. (B) Near-confluent keratinocytes were incubated for 24 hours with the indicated concentrations of glycerol (G, squares) or equivalent concentrations of xylitol (X, circles) in SFKM containing 25 μM (control; open symbols) or 125 μM Ca^2+ (Ca^2+; closed symbols). (C) Near-confluent keratinocytes were incubated for 24 hours with the indicated concentrations of glycerol (G) or equivalent concentrations of sorbitol (S, triangles) in SFKM containing 25 μM (control; open symbols) or 125 μM Ca^2+ (Ca^2+; closed symbols) for 24 hours. [^3H]Thymidine incorporation into DNA was then determined. Values represent the means±SEM of 4 to 5 separate experiments performed in duplicate; *p<0.05, **p<0.01 versus the control value, †p<0.05 versus the value in the presence of Ca^2+ alone. […] After 24 hours cells were refed with medium containing no addition (control) or 0.2% glycerol for an additional 24 hours. Luciferase activity was then measured using a Dual Luciferase kit as directed by the manufacturer. […] The blots were quantified using the Kodak molecular imaging software. […]
The keratin 5 and keratin 10 promoter-luciferase constructs were provided by of Dr. Bogi Andersen (University of California, Irvine, Calif.); the involucrin promoter-luciferase construct was provided by Dr. Daniel Bikle (University of California, San Francisco, Calif.). […] Luciferase activity was then measured using the Dual Luciferase Reporter Assay kit (Promega, Madison, Wis.) as directed by the manufacturer.

[3] = system: involucrin; assay: Involucrin protein levels by western analysis; conditions: 24 hours; PG liposomes in 25 uM Ca2+ medium, or 125 uM Ca2+ alone; normalized to actin
Method: FIGS. 15A-B illustrate that glycerol, but not xylitol or sorbitol, inhibits DNA synthesis and enhances the inhibitory effect of an elevated extracellular Ca^2+ concentration. (A) Near-confluent keratinocytes were incubated for 24 hours with 0.02 or 0.1% glycerol and DNA synthesis measured as the incorporation of [^3H] thymidine incorporation into DNA. (B) Near-confluent keratinocytes were incubated for 24 hours with the indicated concentrations of glycerol (G, squares) or equivalent concentrations of xylitol (X, circles) in SFKM containing 25 μM (control; open symbols) or 125 μM Ca^2+ (Ca^2+; closed symbols). […] [^3H]Thymidine incorporation into DNA was then determined. […] Luciferase activity was then measured using a Dual Luciferase kit as directed by the manufacturer. […] The blots were quantified using the Kodak molecular imaging software. […]
PG was also examined for its ability to stimulate a marker of keratinocyte differentiation. Keratinocytes were treated with or without PG liposomes in 25 uM Ca^2+ (control) or 125 uM Ca^2+-containing medium for 24 hours and cell lysates were analyzed for involucrin protein levels (normalized to actin as a loading control) (FIG. 15E).

[Ca+2] [calcium]
radiolabeled PG formation relative to control cells ([1]; 24 hours pretreatment (250 nM 1,25-dihydroxyvitamin D3 or 125 μM calcium), then [3H]glycerol 30 minutes): induced an increase in the subsequent production of PG
calcium concentration giving maximal stimulation of radiolabeled PG formation ([1]; range 25 μM (control) to 1 mM, 24 hours, biphasic dose dependence): 125 µM
inhibition of keratin 5 promoter activity [2]: 64%
involucrin protein levels, each agent alone [3]: not significant effect
